Experiment [1] deals with phosphorylation of extracellular signal-regulated kinase (ERK). To be noted: preclinical studies; cited from earlier work.
The target in experiment [2] is T1, KRAS G12C (Homo sapiens (Human), UniProt P01116, C118A/G12C). As to the kind of experiment: 20 h coupled exchange assay. It is filed as biochemical. The following applies: value marked ** in the Avg 2 h column; footnote not given, taken as 20 h pre-incubation. Here is the method: (§1) The term “2 h coupled exchange assay” or “20 h coupled exchange assay” as used herein refers to the assay described in the Section entitled “BIOLOGICAL EVALUATION.”

The subject of experiment [3] is MIA PaCa-2 (human pancreatic carcinoma) cells. As to the kind of experiment: Cell Viability Assay (CellTiter-Glo), MIA PaCa-2. It is filed as cell-based. To be noted: Homo sapiens, MIA PaCa-2, 72 h. Here is the method:
Serially-diluted compound or DMSO was added to the cells, and plates were incubated at 37° C., 5% CO2 for 72 h. Cell viability was measured using a CellTiter-Glo® Luminescent Cell Viability Assay kit (Promega) according to the manufacturer's protocol. The luminescence signal of treated samples was normalized to DMSO control, and data were analyzed using a 4-parameter logistic model to calculate IC50 values.

The subject of experiment [4] is A549 (human lung carcinoma) cells. As to the kind of experiment: Cell Viability Assay (CellTiter-Glo), A549. It is filed as cell-based. The following applies: Homo sapiens, A549, 72 h. An outline of the steps:
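Luminescent ATP read-out (CellTiter-Glo) after 72 h compound treatment of cells seeded overnight at 1.67E+04 cells/mL in RPMI 1640, 10% FBS; signal relative to DMSO, IC50 by 4-parameter logistic model.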
A general note: In ATP-based viability assays light output follows the ATP content of the culture.

Experiment [5] deals with T1, KRAS G12C. As to the kind of experiment: 2 h coupled exchange assay. It is filed as biochemical. To be noted: Avg 2 h Coupled exchange IC50, 2 h compound pre-incubation. Here is the method:
as §1

T1 sequence (P01116 other isoform, or with tags, fused parts or gaps G12C/C118A): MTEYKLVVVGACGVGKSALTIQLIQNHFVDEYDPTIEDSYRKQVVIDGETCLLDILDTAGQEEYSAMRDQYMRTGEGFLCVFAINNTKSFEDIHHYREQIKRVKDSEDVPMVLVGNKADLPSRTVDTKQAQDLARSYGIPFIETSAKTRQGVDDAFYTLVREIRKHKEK

For `C=CC(=O)N1CCN(c2nc(=O)n(-c3c(C)ccnc3C(C)C)c3nc(-c4c(O)cccc4F)c(F)cc23)[C@@H](C)C1` [AMG 510], the “inhibition of phosphorylation of extracellular signal-regulated kinase (ERK)” value in experiment [1] is “inhibited nearly all detectable phosphorylation”.
As to `C=CC(=O)N1CC2(CCN(c3nc(-c4c(C)ccc5[nH]ncc45)c4ncn(C)c4n3)C2)C1` [Example 1-20, 1-(6-(9-methyl-6-(5-methyl-1H-indazol-4-yl)-9H-purin-2-yl)-2,6-diazaspiro[3.4]octan-2-yl)-2-propen-1-one], the 50% inhibitory concentration (IC50) (as a rule, the concentration that gives 50% inhibition) in experiment [2] was 4650 nM; in experiment [3], above 5000 nM; in experiment [4], above 5000 nM.
`C=CC(=O)N1CC2(CCN(c3cc(-c4c(C)ccc5[nH]ncc45)c4occ(C)c4n3)C2)C1` [Example 3, 1-(6-(3-Methyl-7-(5-methyl-1H-indazol-4-yl)furo[3,2-b]pyridin-5-yl)-2,6-diazaspiro[3.4]octan-2-yl)prop-2-en-1-one] showed a concentration for half-maximal inhibition (IC50) in experiment [2] of 1380 nM.
In the case of `C=CC(=O)N1CC2(CCN(c3cc4c(c(-c5c(C)ccc6[nH]ncc56)c3Cl)OCCC4)C2)C1` [Example 31-1, 1-(6-(7-chloro-8-(5-methyl-1H-indazol-4-yl)-3,4-dihydro-2H-chromen-6-yl)-2,6-diazaspiro[3.4]octan-2-yl)-2-propen-1-one], the IC50 was 76 nM in experiment [5], 34 nM in experiment [3] and above 5000 nM in experiment [4].
With `C=CC(=O)N1CC2(CCN(c3nc4c(c(-c5ccccc5F)c3C#N)CCN(c3nccn3C)C4)C2)C1` [Example 34-1, 4-(2-fluorophenyl)-7-(1-methyl-1H-imidazol-2-yl)-2-(2-(2-propenoyl)-2,6-diazaspiro[3.4]octan-6-yl)-5,6,7,8-tetrahydro-1,7-naphthyridine-3-carbonitrile], the IC50 amounted to 814 nM in experiment [5], 3510 nM in experiment [3] and 14100 nM in experiment [4].
In the same order, the values of `C=CC(=O)N1CC2(CCN(c3nc4c(c(-c5cccc(O)c5F)c3C#N)CCN(c3scnc3C)C4)C2)C1` [Example 35-1, 4-(2-fluoro-3-hydroxyphenyl)-7-(4-methyl-1,3-thiazol-5-yl)-2-(2-(2-propenoyl)-2,6-diazaspiro[3.4]octan-6-yl)-5,6,7,8-tetrahydro-1,7-naphthyridine-3-carbonitrile] are 67 nM, above 5000 nM and above 5000 nM.
In the same order, the values of `C=CC(=O)N1CC2(CCN(c3nc4c(c(-c5c(C)ccc6cnn(C)c56)c3C)CCN(C3(C)COC3)C4)C2)C1` [Example 36-1, 1-(6-(4-(1,6-dimethyl-1H-indazol-7-yl)-3-methyl-7-(3-methyl-3-oxetanyl)-5,6,7,8-tetrahydro-1,7-naphthyridin-2-yl)-2,6-diazaspiro[3.4]octan-2-yl)-2-propen-1-one] are 589 nM, 335 nM and 14600 nM.
In the same order, the values of `C=CC(=O)N1CC2(CCN(c3nc4c(c(-c5c(C)ccc(OC)c5N)c3C#N)COC(C)(C)C4)C2)C1` [Example 37-1, 4-(2-amino-3-methoxy-6-methylphenyl)-7,7-dimethyl-2-(2-(2-propenoyl)-2,6-diazaspiro[3.4]octan-6-yl)-7,8-dihydro-5H-pyrano[4,3-b]pyridine-3-carbonitrile] are 214 nM, 96 nM and above 25000 nM.
Turning to `C=CC(=O)N1CC2(CCN(c3nc4c(c(-c5cc(N)cc6ccccc56)c3C#N)COC(C)(C)C4)C2)C1` [Example 38-1, 4-(3-amino-1-naphthalenyl)-7,7-dimethyl-2-(2-(2-propenoyl)-2,6-diazaspiro[3.4]octan-6-yl)-7,8-dihydro-5H-pyrano[4,3-b]pyridine-3-carbonitrile], the IC50 was determined as 407 nM in experiment [5], 348 nM in experiment [3] and 12700 nM in experiment [4].

Source of the values: patent US20240059703A1 (AMGEN INC., priority 2021, published 2024).
